Experimental data taken from ChEMBL document CHEMBL1201862, “PubChem BioAssay data set” (2004).
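In this assay, cells in 96-well plates receive the compound at five concentrations for 48 hours. Endpoints are linearly interpolated between the surrounding concentrations. GI50: concentration for 50% inhibition of growth.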 Activity calls are given as the source filed them. Cut-off read from the data, not from the text of the source: active = GI50 up to about 1.1 µM and inactive = higher.

Key:
Assay in all cases: NCI-60 cell line screen, 48 h
786-0 = test system: 786-0
ACHN = test system: ACHN
HCC 2998 = test system: HCC 2998
HCT-116 = test system: HCT-116
HT-29 = test system: HT-29
KM12 = test system: KM12
Malme-3M = test system: Malme-3M
OVCAR-5 = test system: OVCAR-5
RXF 393 = test system: RXF 393
SN12C = test system: SN12C
SNB-19 = test system: SNB-19
SNB-75 = test system: SNB-75
U-251 = test system: U-251
UACC-62 = test system: UACC-62
LOX IMVI = test system: LOX IMVI
M14 = test system: M14
OVCAR-4 = test system: OVCAR-4

Measured: GI50

CCOC(=O)c1ccc(N2C(=O)Cc3ccccc3C2=O)cc1
inactive: 786-0 > 100 µM | ACHN > 100 µM | HCC 2998 > 100 µM | HCT-116 > 100 µM | HT-29 > 100 µM | KM12 > 100 µM | Malme-3M > 100 µM | OVCAR-5 > 100 µM | RXF 393 > 100 µM | SN12C > 100 µM | SNB-19 > 100 µM | SNB-75 > 100 µM | U-251 > 100 µM | UACC-62 > 100 µM

CN(C)c1ccc(/C=C/C=C\c2cc(/C=C/C=C/c3ccc(N(C)C)cc3)[s+]c3ccccc23)cc1.[O-][Cl+3]([O-])([O-])[O-]
inactive: 786-0 90.6 µM | HCT-116 78.5 µM | HT-29 > 100 µM | KM12 > 100 µM | LOX IMVI 20.1 µM | M14 14.5 µM | Malme-3M 24.4 µM | OVCAR-4 10 µM | OVCAR-5 > 100 µM | RXF 393 13.1 µM | SN12C > 100 µM | SNB-19 > 100 µM | SNB-75 > 100 µM | U-251 10 µM | UACC-62 28.2 µM

COc1cc2c3c(c1OC)C1(C=CC(=O)C=C1)CC3N(C(=O)OC(C)(C)C(Cl)(Cl)Cl)CC2 (stereo not drawn)
inactive: 786-0 14.2 µM | HCT-116 6.25 µM | HT-29 8.53 µM | KM12 9.2 µM | LOX IMVI 10.1 µM | M14 14.5 µM | Malme-3M 14.2 µM | OVCAR-4 12.5 µM | OVCAR-5 2.52 µM | RXF 393 4.16 µM | SN12C 11.6 µM | SNB-19 14.9 µM | SNB-75 15.1 µM | U-251 10.5 µM | UACC-62 13.1 µM

O=C(Nc1ccn(CCO)c(=O)n1)c1ccccc1
inactive: 786-0 > 100 µM | ACHN > 100 µM | HCT-116 > 100 µM | HT-29 > 100 µM | KM12 > 100 µM | LOX IMVI > 100 µM | M14 > 100 µM | Malme-3M > 100 µM | OVCAR-4 > 100 µM | OVCAR-5 > 100 µM | RXF 393 > 100 µM | SN12C > 100 µM | SNB-75 > 100 µM | U-251 > 100 µM | UACC-62 > 100 µM

CCC1CCc2c(c(=O)oc3c2cc(OC)c2cccc(OC)c23)C1 (stereo not drawn)
inactive: 786-0 > 100 µM | ACHN 87.7 µM | HCC 2998 77.1 µM | HCT-116 33.4 µM | HT-29 33.4 µM | KM12 47.8 µM | M14 > 100 µM | Malme-3M 56.9 µM | OVCAR-4 76 µM | OVCAR-5 > 100 µM | RXF 393 21.7 µM | SN12C > 100 µM | SNB-19 > 100 µM | SNB-75 55.8 µM | U-251 74.3 µM | UACC-62 48.5 µM

[N-]=[N+]=Nc1cc(=O)oc2ccccc12
inactive: 786-0 > 100 µM | ACHN > 100 µM | HCT-116 > 100 µM | HT-29 > 100 µM | KM12 > 100 µM | LOX IMVI > 100 µM | M14 > 100 µM | Malme-3M > 100 µM | OVCAR-4 > 100 µM | OVCAR-5 > 100 µM | RXF 393 > 100 µM | SN12C > 100 µM | SNB-75 > 100 µM | U-251 > 100 µM | UACC-62 > 100 µM

CC12CCC3=C(CSC4=C3CSc3ccccc34)C1=CCCC2=O (stereo not drawn)
inactive: ACHN 69.2 µM | HCC 2998 47.4 µM | HCT-116 58.3 µM | HT-29 34.1 µM | KM12 54.2 µM | LOX IMVI 69.8 µM | M14 27.8 µM | Malme-3M 31 µM | OVCAR-4 14.8 µM | OVCAR-5 37.8 µM | RXF 393 40.2 µM | SN12C > 100 µM | SNB-19 66.5 µM | U-251 42.8 µM

CN1C(=O)CNS1(=O)=O
inactive: 786-0 > 100 µM | ACHN > 100 µM | HCC 2998 > 100 µM | HCT-116 > 100 µM | HT-29 > 100 µM | KM12 > 100 µM | LOX IMVI > 100 µM | M14 > 100 µM | Malme-3M > 100 µM | OVCAR-5 > 100 µM | RXF 393 > 100 µM | SN12C > 100 µM | SNB-19 > 100 µM | SNB-75 38.1 µM | U-251 > 100 µM | UACC-62 > 100 µM

CCCO/N=[N+](\[O-])N(CC)CC
inactive: ACHN > 100 µM | HCC 2998 > 100 µM | HCT-116 > 100 µM | HT-29 > 100 µM | KM12 > 100 µM | LOX IMVI > 100 µM | M14 > 100 µM | OVCAR-5 > 100 µM | RXF 393 > 100 µM | SN12C > 100 µM | SNB-19 > 100 µM | U-251 > 100 µM | UACC-62 > 100 µM
